From ChEMBL document CHEMBL1152943, “Synthesis and in vitro anti-hepatitis B virus activity of 6H-[1]benzothiopyrano[4,3-b]quinolin-9-ols” (Bioorg Med Chem, 2009)

Key:
[1] = Cytotoxicity against human HepG2(2.2.15) cells after 24 hrs by neutral red dye staining; format: functional; details: HepG2 2.2.15, 24 h
Hepatitis B virus [2] = experiment: Antiviral activity against HBV infected in human HepG2(2.2.15) cells assessed as inhibition of HBV DNA replication; format: functional, organism-based
Hepatitis B virus [3] = experiment: Antiviral activity against HBV infected in human HepG2(2.2.15) cells assessed as inhibition of HBV surface antigen at < TC50; format: functional, organism-based
[4] = Selectivity index, ratio of TC50 for human HepG2(2.2.15) cells to IC50 for inhibition of HBV DNA replication
Hepatitis B virus [5] = experiment: Antiviral activity against HBV infected in human HepG2(2.2.15) cells assessed as inhibition of HBV surface antigen; format: functional, organism-based
[6] = Selectivity index, ratio of TC50 for human HepG2(2.2.15) cells to IC50 for inhibition of HBV surface antigen
[7] = Hepatitis B virus, HepG2 2.2.15, read-out: IC50

SMILES	IC50 (Hepatitis B virus [2]; hepg2 2.2.15)	IC50 (Hepatitis B virus [2]; [7])	IC50 (Hepatitis B virus [5])	CC50 [1]	IC50 (Hepatitis B virus [3])	Selectivity Index [4]	Selectivity Index [6]
COc1cc2nc3c(cc2c(CN2CCN(C)CC2)c1O)CSc1ccccc1-3	Not Active	–	–	25.2 µM	Not Active	–	–
CCN(CC)Cc1c(O)c(OC)cc2nc3c(cc12)CSc1ccc(C)cc1-3	–	2 µM	–	12 µM	Not Active	6	–
COc1cc2nc3c(cc2c(CN2CCOCC2)c1O)CSc1cc(F)ccc1-3	Not Active	–	–	28.8 µM	Not Active	–	–
COc1cc2nc3c(cc2c(CN2CCN(C)CC2)c1O)CSc1ccc(C)cc1-3	–	107 µM	–	527 µM	Not Active	4.9	–
CCN(CC)Cc1c(O)c(OC)cc2nc3c(cc12)CSc1cc(F)ccc1-3	–	2.4 µM	–	20.7 µM	Not Active	8.7	–
COc1cc2nc3c(cc2c(CN2CCOCC2)c1O)CSc1ccc(C)cc1-3	–	14.7 µM	–	181 µM	Not Active	12.4	–
COc1cc2nc3c(cc2c(CN(C)C)c1O)CSc1ccc(C)cc1-3	Not Active	–	22.1 µM	67.3 µM	–	–	3
COc1cc2nc3c(cc2c(CN2CCN(C)CC2)c1O)CSc1cc(F)ccc1-3	Not Active	–	–	13.5 µM	Not Active	–	–
COc1cc2nc3c(cc2c(CN(C)C)c1O)CSc1ccccc1-3	Not Active	–	9.3 µM	36.5 µM	–	–	3.9
CCN(CC)Cc1c(O)c(OC)cc2nc3c(cc12)CSc1ccccc1-3	Not Active	–	–	39 µM	Not Active	–	–
Nc1ccn([C@@H]2CS[C@H](CO)O2)c(=O)n1 [LAMIVUDINE]	–	240 µM	–	2180 µM	Not Active	9.1	–
COc1cc2nc3c(cc2c(CN2CCOCC2)c1O)CSc1cc(C)ccc1-3	Not Active	–	–	262 µM	Not Active	–	–
COc1cc2nc3c(cc2c(CN2CCOCC2)c1O)CSc1ccccc1-3	Not Active	–	–	42.1 µM	Not Active	–	–

Now from value to compound, other results behind:

IC50 (Hepatitis B virus [2]; hepg2 2.2.15)	IC50 (Hepatitis B virus [2]; [7])	IC50 (Hepatitis B virus [5])	SMILES	CC50 [1]	IC50 (Hepatitis B virus [3])	Selectivity Index [4]	Selectivity Index [6]
–	47.7 µM	–	COc1cc2nc3c(cc2c(CN2CCCC2)c1O)CSc1ccc(F)cc1-3	435 µM	Not Active	9.1	–
–	4.2 µM	–	COc1cc2nc3c(cc2c(CN2CCCCC2)c1O)CSc1c(C)cc(C)cc1-3	21.9 µM	Not Active	5.3	–
Not Active	–	–	COc1cc2nc3c(cc2c(CN2CCOCC2)c1O)CSc1c(C)cc(C)cc1-3	50.6 µM	Not Active	–	–
–	56.3 µM	–	COc1cc2nc3c(cc2c(CN2CCCC2)c1O)CSc1ccc(C)cc1-3	146 µM	Not Active	2.6	–
–	173 µM	–	COc1cc2nc3c(cc2c(CN2CCCC2)c1O)CSc1cc(F)ccc1-3	566 µM	Not Active	3.3	–
Not Active	–	13.8 µM	COc1cc2nc3c(cc2c(CN(C)C)c1O)CSc1c(C)cc(C)cc1-3	32.4 µM	–	–	2.4
